From patent US20070117858A1, “SUBSTITUTED 5-HETEROARYL-1-PHENYL-PYRAZOLE CANNABINOID MODULATORS” (priority 2005, published 2007) come the findings set out here.

A word on the inhibition: it is the drop in the measured response relative to a control, in per cent. In general, IC50 refers to the point on the concentration scale where inhibition reaches its midpoint. A higher IC50 goes with weaker potency in that assay.

SMILES strings stand for the structures.

The target in one assay is T1, human CB2 receptor (Homo sapiens, UniProt P34972).
T1 construct: expressed in transfected cells; host or cells: SK-N-MC cells, stably transfected with pcDNA3 CB-2 (human); semi-purified membrane pellet
T1 sequence (P34972 whole entry): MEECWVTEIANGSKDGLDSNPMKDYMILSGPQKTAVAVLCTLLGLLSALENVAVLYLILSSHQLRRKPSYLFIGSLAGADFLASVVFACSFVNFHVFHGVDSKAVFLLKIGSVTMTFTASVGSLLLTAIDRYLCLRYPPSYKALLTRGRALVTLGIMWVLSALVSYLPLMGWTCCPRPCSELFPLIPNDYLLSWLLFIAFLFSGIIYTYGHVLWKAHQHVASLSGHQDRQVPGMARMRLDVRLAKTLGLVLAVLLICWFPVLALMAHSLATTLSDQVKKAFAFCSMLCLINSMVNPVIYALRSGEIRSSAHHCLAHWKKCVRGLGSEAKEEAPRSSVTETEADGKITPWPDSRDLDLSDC
As to the kind of experiment: Cannabinoid CB2 receptor binding assay ([3H]-CP-55,940 displacement, SK-N-MC cell membranes). The note with it: 1.5 h; test concentration of 0.2 μM; radioligand CP-55,940 0.2 nM; read-out: Cannabinoid CB2 Receptor Binding, percent inhibition. On the procedure: (§1) Binding Assay for CB1 or CB2 Agonists or Inverse Agonists
(§2) The human CB1 and CB2 receptors were stably expressed in SK-N-MC cells transfected with pcDNA3 CB-1 (human) or pcDNA3 CB-2 (human). The cells were grown in T-180 cell culture flasks under standard cell culture conditions at 37° C. in a 5% CO2 atmosphere. The cells were harvested by trysinization and homogenized in a homogenization buffer (10 mM Tris, 0.2 mM MgCl2, 5 mM KCl, with protease inhibitors aprotinin, leupeptin, pepstatin A and bacitracin) and centrifuged (2000 g). The supernatant was then centrifuged in 2M sucrose (31,300 g) to produce a semi-purified membrane pellet. The pellet was resuspended in homogenization and stored at −80° C.
(§3) On the day of the assay, the pellet was thawed on ice and diluted in assay buffer (50 mM Tris-HCl, 5 mM MgCl2, 2.5 mM EDTA, 0.5 mg/mL fatty acid free bovine serum albumin, pH 7.5). The diluted membrane pellet was added with buffer, either a test compound or vehicle standard and the radioligand […] (0.2 nM) to the wells of a 96-well polypropylene plate. Non-specific binding was measured in wells containing W1N 55,212 (10 uM). The plate was covered and incubated for 90 minutes at 30° C. The contents were then aspirated onto a Packard Unifilter GF/C filter bottom plate prewet with 0.5% polyethyleneimine. The wells of the polypropylene plate were rinsed and aspirated seven times with a 0.9% saline-0.5% Tween 20 solution. The Unifilter plate was dried, scintillation cocktail was added to each well and the counts representing binding were quantitated in a TopCount scintillation counter.
(§4) For compounds tested, an IC50 binding value was obtained from percent inhibition studies in which various test concentrations were used. The binding value was calculated by linear regression.
(§5) For compounds without an IC50 binding value, the percent inhibition (%) was obtained at a test concentration of 0.2 μM.

Another assay concerns the target T2, human CB1 receptor (Homo sapiens, UniProt P21554).
T2 construct: expressed in transfected cells; host or cells: SK-N-MC cells, stably transfected with pcDNA3 CB-1 (human); semi-purified membrane pellet
In words: Cannabinoid CB1 receptor binding assay ([3H]-CP-55,940 displacement, SK-N-MC cell membranes). The following applies: for inhibition at 0.2 µM: 1.5 h, read-out: Cannabinoid CB1 Receptor Binding, percent inhibition. The protocol: as §1, §2, §3, §4, §5

T2 sequence (P21554 whole entry): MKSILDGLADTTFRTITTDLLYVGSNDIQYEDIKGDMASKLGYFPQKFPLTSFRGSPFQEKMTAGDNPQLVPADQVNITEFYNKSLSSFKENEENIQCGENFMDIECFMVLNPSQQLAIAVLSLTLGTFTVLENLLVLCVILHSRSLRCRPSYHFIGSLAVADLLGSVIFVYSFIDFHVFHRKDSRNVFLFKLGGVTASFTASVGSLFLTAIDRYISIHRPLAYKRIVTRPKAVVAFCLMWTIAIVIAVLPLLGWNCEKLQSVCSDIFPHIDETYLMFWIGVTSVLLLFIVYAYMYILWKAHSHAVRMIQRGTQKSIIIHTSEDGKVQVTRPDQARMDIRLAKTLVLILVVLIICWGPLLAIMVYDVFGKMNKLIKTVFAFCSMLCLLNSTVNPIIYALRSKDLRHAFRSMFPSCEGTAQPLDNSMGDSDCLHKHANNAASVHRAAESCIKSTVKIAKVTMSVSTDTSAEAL

With `Cc1c(C(=O)N[C@@H](C)c2ccccc2)nn(-c2ccc(Cl)cc2Cl)c1-c1ccc(F)s1` [Cpd 31, 1-(2,4-dichloro-phenyl)-5-(5-fluoro-thiophen-2-yl)-4-methyl-1H-pyrazole-3-carboxylic acid [(1S)-1-phenyl-ethyl]-amide], the inhibition at 0.2 µM amounted to 39% on human CB2 receptor and 64% at human CB1 receptor.
Taken in the same sequence, the figures for `C[C@@H](NC(=O)c1nn(-c2ccc(Cl)cc2Cl)c(-c2ccc(Cl)s2)c1C#N)c1ccccn1` [Cpd 27, 5-(5-chloro-thiophen-2-yl)-4-cyano-1-(2,4-dichloro-phenyl)-1H-pyrazole-3-carboxylic acid [(1R)-1-pyridin-2-yl-ethyl]-amide] were 12% and 69%.
Taken in the same sequence, the figures for `Cc1c(C(=O)NN2CCCCC2)nn(-c2ccc(Cl)cc2Cl)c1-c1cc(Br)cs1` [Cpd 44, 5-(4-bromo-thiophen-2-yl)-1-(2,4-dichloro-phenyl)-4-methyl-1H-pyrazole-3-carboxylic acid piperidin-1-ylamide] were 53% and 74%.
In the same order, the values of `Cc1c(C(=O)NN2CCCCC2)nn(-c2ccc(Cl)cc2Cl)c1-c1cccs1` [Cpd 10, 1-(2,4-dichloro-phenyl)-4-methyl-5-thiophen-2-yl-1H-pyrazole-3-carboxylic acid piperidin-1-ylamide] are 6% and 37%.
Turning to `CCc1c(C(=O)NN2CCCCC2)nn(-c2ccc(Cl)cc2Cl)c1-c1ccc(Br)s1` [Cpd 35, 5-(5-bromo-thiophen-2-yl)-1-(2,4-dichloro-phenyl)-4-ethyl-1H-pyrazole-3-carboxylic acid piperidin-1-ylamide], the inhibition at 0.2 µM at human CB2 receptor was 29%. This compound came in with an IC50 on human CB1 receptor of 0.013 µM.
For the compound `CCc1c(C(=O)NN2CCC(O)CC2)nn(-c2ccc(Cl)cc2Cl)c1-c1ccc(Br)s1` [Cpd 51, 5-(5-bromo-thiophen-2-yl)-1-(2,4-dichloro-phenyl)-4-ethyl-1H-pyrazole-3-carboxylic acid (4-hydroxy-piperidin-1-yl)-amide], the values for the inhibition at 0.2 µM at human CB2 receptor and at human CB1 receptor were 13% and 63%, respectively.
With `Cc1ccc(-c2c(C)c(C(=O)N[C@H](C)c3ccccn3)nn2-c2ccc(Cl)cc2Cl)o1` [Cpd 56, 1-(2,4-dichloro-phenyl)-4-methyl-5-(5-methyl-furan-2-yl)-1H-pyrazole-3-carboxylic acid [(1R)-1-pyridin-2-yl-ethyl]-amide], the results for the inhibition at 0.2 µM at human CB2 receptor and on human CB1 receptor were 26% and 41%, respectively.
In the same order, the values of `Cc1c(C(=O)N[C@H](C)c2ccccc2)nn(-c2ccc(Cl)cc2Cl)c1-c1cccs1` [Cpd 6, 1-(2,4-dichloro-phenyl)-4-methyl-5-thiophen-2-yl-1H-pyrazole-3-carboxylic acid [(1R)-1-phenyl-ethyl]-amide] are 8% and 57%.
In the same order, the values of `Cc1c(C(=O)N[C@@H](C)c2ccccn2)nn(-c2ccc(Cl)cc2Cl)c1-c1ccc(F)s1` [Cpd 34, 1-(2,4-dichloro-phenyl)-5-(5-fluoro-thiophen-2-yl)-4-methyl-1H-pyrazole-3-carboxylic acid [(1S)-1-pyridin-2-yl-ethyl]-amide] are 34% and 61%.
For `C[C@@H](NC(=O)c1nn(-c2ccc(Cl)cc2Cl)c(-c2ccc(Cl)s2)c1C#N)C1CCCCC1` [Cpd 24, 5-(5-chloro-thiophen-2-yl)-4-cyano-1-(2,4-dichloro-phenyl)-1H-pyrazole-3-carboxylic acid [(1R)-1-cyclohexyl-ethyl]-amide], the inhibition at 0.2 µM on human CB2 receptor came out at 13%. The compound also showed an IC50 on human CB1 receptor of 0.015 µM.
For `N#Cc1c(C(=O)N2CCCCC2)nn(-c2ccc(Cl)cc2Cl)c1-c1cccs1` [Cpd 21, 1-(2,4-dichloro-phenyl)-3-(piperidine-1-carbonyl)-5-thiophen-2-yl-1H-pyrazole-4-carbonitrile], the inhibition at 0.2 µM was determined as 3% on human CB2 receptor and 12% on human CB1 receptor.
Take `CCc1c(C(=O)N[C@@H](C)c2ccccc2)nn(-c2ccc(Cl)cc2Cl)c1-c1ccc(Br)s1` [Cpd 42, 5-(5-bromo-thiophen-2-yl)-1-(2,4-dichloro-phenyl)-4-ethyl-1H-pyrazole-3-carboxylic acid [(1S)-1-phenyl-ethyl]-amide]: the inhibition at 0.2 µM at human CB2 receptor was found to be 38%. This compound had an IC50 at human CB1 receptor of 0.011 µM.
As for `Cc1c(C(=O)NN2CC3CCCC3C2)nn(-c2ccc(Cl)cc2Cl)c1-c1cccs1` (stereo not shown) [Cpd 11, 1-(2,4-dichloro-phenyl)-4-methyl-5-thiophen-2-yl-1H-pyrazole-3-carboxylic acid (hexahydro-cyclopenta[c]pyrrol-2-yl)-amide], the inhibition at 0.2 µM on human CB2 receptor worked out at 0%; on human CB1 receptor, 53%.
Taken in the same sequence, the figures for `Cc1c(C(=O)NN2CCCCC2=O)nn(-c2ccc(Cl)cc2Cl)c1-c1ccc(Cl)s1` [Cpd 30, 5-(5-chloro-thiophen-2-yl)-1-(2,4-dichloro-phenyl)-4-methyl-1H-pyrazole-3-carboxylic acid (2-oxo-piperidin-1-yl)-amide] were 15% and 17%.
Taken in the same sequence, the figures for `Cc1c(C(=O)N[C@@H](C)C2CCCCC2)nn(-c2ccc(Cl)cc2Cl)c1-c1ccc(F)s1` [Cpd 33, 1-(2,4-dichloro-phenyl)-5-(5-fluoro-thiophen-2-yl)-4-methyl-1H-pyrazole-3-carboxylic acid [(1S)-1-cyclohexyl-ethyl]-amide] were 41% and 73%.
Turning to `Cc1c(C(=O)NN2CCCCC2)nn(-c2ccc(Cl)cc2Cl)c1-c1ccc(I)s1` [Cpd 29, 1-(2,4-dichloro-phenyl)-5-(5-iodo-thiophen-2-yl)-4-methyl-1H-pyrazole-3-carboxylic acid piperidin-1-ylamide], the inhibition at 0.2 µM at human CB2 receptor was 55%. This compound yielded an IC50 on human CB1 receptor of 0.017 µM.
Consider `Cc1c(C(=O)N[C@H](C)c2ccccc2)nn(-c2ccc(Cl)cc2Cl)c1-c1cc(Br)cs1` [Cpd 49, 5-(4-bromo-thiophen-2-yl)-1-(2,4-dichloro-phenyl)-4-methyl-1H-pyrazole-3-carboxylic acid [(1R)-1-phenyl-ethyl]-amide], for which the inhibition at 0.2 µM turned out to be 63% at human CB2 receptor and 76% at human CB1 receptor.
In the same order, the values of `Cc1c(C(=O)NN2CCC(O)CC2)nn(-c2ccc(Cl)cc2Cl)c1-c1ccc(Cl)s1` [Cpd 4, 5-(5-chloro-thiophen-2-yl)-1-(2,4-dichloro-phenyl)-4-methyl-1H-pyrazole-3-carboxylic acid (4-hydroxy-piperidin-1-yl)-amide] are 11% and 27%.
Taken in the same sequence, the figures for `Cc1c(C(=O)N2CCCCC2)nn(-c2ccc(Cl)cc2Cl)c1-c1cc(Br)cs1` [Cpd 45, [5-(4-bromo-thiophen-2-yl)-1-(2,4-dichloro-phenyl)-4-methyl-1H-pyrazol-3-yl]-piperidin-1-yl-methanone] were 12% and 33%.
On to `Cc1c(C(=O)N[C@@H](C)c2ccccn2)nn(-c2ccc(Cl)cc2Cl)c1-c1cc(Br)cs1` [Cpd 47, 5-(4-bromo-thiophen-2-yl)-1-(2,4-dichloro-phenyl)-4-methyl-1H-pyrazole-3-carboxylic acid [(1S)-1-pyridin-2-yl-ethyl]-amide], for which the values for the inhibition at 0.2 µM at human CB2 receptor and at human CB1 receptor were 46% and 56%, respectively.
Taken in the same sequence, the figures for `Cc1ccc(-c2c(C)c(C(=O)NN3CCCCC3)nn2-c2ccc(Cl)cc2Cl)o1` [Cpd 53, 1-(2,4-dichloro-phenyl)-4-methyl-5-(5-methyl-furan-2-yl)-1H-pyrazole-3-carboxylic acid piperidin-1-ylamide] were 21% and 40%.
In the case of `CCc1c(C(=O)N[C@H](C)c2ccccc2)nn(-c2ccc(Cl)cc2Cl)c1-c1ccc(Br)s1` [Cpd 40, 5-(5-bromo-thiophen-2-yl)-1-(2,4-dichloro-phenyl)-4-ethyl-1H-pyrazole-3-carboxylic acid [(1R)-1-phenyl-ethyl]-amide], the inhibition at 0.2 µM on human CB2 receptor amounted to 52%; at human CB1 receptor, 78%.
Regarding `Cc1c(C(=O)N[C@@H](C)c2ccccc2)nn(-c2ccc(Cl)cc2Cl)c1-c1cccs1` [Cpd 7, 1-(2,4-dichloro-phenyl)-4-methyl-5-thiophen-2-yl-1H-pyrazole-3-carboxylic acid [(1S)-1-phenyl-ethyl]-amide], the figures for the inhibition at 0.2 µM at human CB2 receptor and at human CB1 receptor were 0% and 28%, respectively.
